# Laboratory results published in publication PMC11845477, “Exploring the principles behind antibiotics with limited resistance” (Nature Communications, 2025).
# Like-named read-outs stand apart in the source and are kept apart here. Where a SMILES comes first, the peptide text is derived from it. Bridges are numbered along the chain shown (N, C = ends). [ ]: non-standard residue; d: D form. The star is where a group is joined. X1 = NC[C@@H](CC(=O)*)c1cccc(Cl)c1; X2 = CC[C@H](C)CCCCC(=O)*; Dab = NCC[C@H](N)C(=O)O; Dap = NC[C@H](N)C(=O)O
# Experiments:
# [1] = system: polymyxin B-resistant lines of E. coli (EC-SEN); assay: Cross-resistance of polymyxin B resistant evolved lines, relative MIC; format: cell-based, Escherichia coli
# Protocol: 3 independently evolved lines from each investigated species were studied, including E. coli (EC), K. pneumoniae (KP), A. baumannii (AB), and P. aeruginosa (PA). […] The distances between antibiotics were computed using the Euclidean distance method based on the log-transformed MIC values. The clustering was performed using the complete linkage method. […] For detailed information on antibiotic and bacterial strain abbreviations, see Supplementary Data 1. Source data are provided as a Source Data file.
# (§1) A robotic liquid handling system was used to automatically prepare a 11 to 16-step serial dilution in 384-well microtiter plates (Greiner). A final concentration of 5 × 10^5 bacterial cells per mL were inoculated into each well containing 60 µL MHB medium. Bacterial cultures were incubated at 37 °C with continuous shaking (Infors shaker, 900 rpm with 3 mm throw) for 18 hours (2 replicates from each). Cell growth was monitored by measuring the optical density (OD600 values, using Biotek Synergy microplate reader). MIC was defined as the antibiotic concentration of complete growth inhibition (i.e., OD600 < 0.05). Relative MIC was calculated as follows:1 relativeMIC=MICevolved/MICancestor […]
# Each data point represents a distinct
# Boxplots show the median, first and third quartiles, with whiskers showing the 5th and 95th percentiles. P values were calculated using Dunn's post-hoc test with Benjamini-Hochberg correction (NS indicates p > 0.05, ** / **** indicates p < 0.01 […]
# (§2) For detailed information on antibiotic and bacterial strain abbreviations, see Supplementary Table 1. Source data are provided as a Source […]
# (§3) (1 picture or pasted object on this page, not shown here)
# [2] = system: polymyxin B-resistant lines of K. pneumoniae (KP-SEN); assay: as above; format: cell-based, Klebsiella pneumoniae
# From the text: (§4) To further investigate potential overlaps in resistance mechanisms, we examined the extent of cross-resistance between polymyxin B and other antibiotics that target the bacterial membrane.
# (§5) Fig. 7 Cross-resistance of polymyxin B resistant lines to ST and DT permeabilizer antibiotics. […] 3 independently evolved lines from each investigated species were studied, including E. coli (EC), K. pneumoniae (KP), A. baumannii (AB), and P. aeruginosa (PA). Gray color of the main heatmap indicates combinations not tested due to intrinsic resistance of ancestor strain. The additional heatmap to the right depicts genes mutated in each polymyxin B-adapted line and their involvement in specific cellular processes based on KEGG (Kyoto Encyclopedia of Genes and Genomes) and COG (Clusters of Orthologous Genes) databases. The distances between antibiotics were computed using the Euclidean distance method based on the log-transformed MIC values. The clustering was performed using the complete linkage method. […] For detailed information on antibiotic and bacterial strain abbreviations, see Supplementary Data 1. Source data are provided as a Source Data file.
# as §1
# (§6) Supplementary Figure 6. Susceptibility of Polymyxin B resistant lines to other ST and DT […]
# (§7) dividing the MIC of the evolved line by that of the corresponding ancestor) of 12 polymyxin B resistant lines to ST and DT permeabilizer antibiotics used in this study. Each data point represents a distinct adaptive laboratory evolved polymyxin B resistant line. Boxplots show the median, first and third quartiles, with whiskers showing the 5th and 95th percentiles. P values were calculated using Dunn's post-hoc test with Benjamini-Hochberg correction (NS indicates p > 0.05, ** / **** indicates p < 0.01 / 0.0001, respectively). The resistance level of polymyxin B resistant lines to polymyxin B (PMB), […]
# as §2, §3
# [3] = system: polymyxin B-resistant lines of A. baumannii (AB-SEN); assay: as above; format: cell-based, Acinetobacter baumannii
# From the text: as §4, §5, §1, §6, §7, §2, §3
# [4] = system: polymyxin B-resistant lines of P. aeruginosa (PA-SEN); assay: as above; format: cell-based, Pseudomonas aeruginosa
# From the text: as §4, §5, §1, §6, §7, §2, §3
# [5] = system: E. coli ATCC 25922 (SEN) and E. coli NCTC13846 (MDR); set-up: method as in PMID 39805953; details: cited from earlier work
# [6] = system: K. pneumoniae ATCC 10031 (SEN) and K. pneumoniae ATCC 700603 (MDR); set-up: method as in PMID 39805953; details: K. pneumoniae sensitive strain; cited from earlier work
# [7] = system: P. aeruginosa ATCC BAA-3107 (SEN) and P. aeruginosa LESB58 (MDR); details: cited from earlier work
# From the text: page 10: Mobile resistance genes against DT permeabilizer were rare in human-associated microbiomes and clinically relevant pathogens, while they were abundant against ST permeabilizers.
# [8] = system: mutated genes in antibiotic-adapted lines; assay: Whole genome sequencing and comparative mutational analysis of adapted lines; details: lines adapted in laboratory evolution
# From the text: We focused on the resistance mechanisms of DT permeabilizers and ST permeabilizers (Fig. 5a), as these antibiotics commonly disintegrate the bacterial membrane, and therefore the resistance mechanisms may overlap.
# Genes are categorized based on their cellular localization using PSORT (Protein Subcellular Localization Prediction Tool). They are further classified according to their involvement in specific metabolic or resistance pathways using the KEGG (Kyoto Encyclopedia of Genes and Genomes) and COG (Clusters of Orthologous Genes) databases.
# To identify potential antibiotic resistance mutations, we selected 2 to 5 lines from the frequency-of-resistance (FoR) and adaptive laboratory evolution (ALE) experiments for whole genome sequencing. Resistant populations were grown overnight in antibiotic-free medium, and DNA was isolated using the GenElute Bacterial Genomic DNA Kit (Sigma), following the manufacturer’s instructions. DNA was eluted in 120 µl of RNAse-free water over two elution steps, and 60 µl of the eluted DNA was further concentrated using the Zymo DNA Clean and Concentrator Kit. DNA concentration was measured with a Qubit Fluorometer and set to 1 ng/µl per sample. Sequencing libraries were prepared using the Nextera XT DNA library preparation kit (Illumina) and sequenced on an Illumina NextSeq 500 platform, generating 2 × 150 bp paired-end reads.
# To identify and annotate variants, sequencing reads were mapped to their corresponding reference genomes using the Burrows-Wheeler Aligner (BWA)[75]. PCR duplicates were removed using Picard Mark Duplicates (see http://broadinstitute.github.io/picard) and reads with more than 6 mismatches were discarded. Variants (SNPs and INDELs) were called with Freebayes[76] and filtered using vcffilter[77], retaining only those with a quality score above 100. Rare variants were not excluded, but potential artefacts were manually inspected using IGV[78]. Variants were annotated with SnpEf, keeping only those absent in the ancestor. Mutations appearing in more than nine lines were excluded, as these were likely present in the ancestor. […]
# [9] = EC-SEN, polymyxin B-resistant evolved line 4, MIC evolved/MIC ancestor
# [10] = EC-SEN, polymyxin B-resistant evolved line 6, MIC evolved/MIC ancestor
# [11] = EC-SEN, polymyxin B-resistant evolved line 10, MIC evolved/MIC ancestor
# [12] = polymyxin B-resistant evolved line 4 of EC-SEN, MIC relative to ancestor
# [13] = polymyxin B-resistant evolved line 6 of EC-SEN, MIC relative to ancestor
# [14] = polymyxin B-resistant evolved line 10 of EC-SEN, MIC relative to ancestor
# [15] = KP-SEN, polymyxin B-resistant evolved line 1, MIC evolved/MIC ancestor
# [16] = KP-SEN, polymyxin B-resistant evolved line 3, MIC evolved/MIC ancestor
# [17] = KP-SEN, polymyxin B-resistant evolved line 7, MIC evolved/MIC ancestor
# [18] = polymyxin B-resistant evolved line 1 of KP-SEN, MIC relative to ancestor
# [19] = polymyxin B-resistant evolved line 3 of KP-SEN, MIC relative to ancestor
# [20] = polymyxin B-resistant evolved line 7 of KP-SEN, MIC relative to ancestor
# [21] = AB-SEN, polymyxin B-resistant evolved line 2, MIC evolved/MIC ancestor
# [22] = AB-SEN, polymyxin B-resistant evolved line 6, MIC evolved/MIC ancestor
# [23] = AB-SEN, polymyxin B-resistant evolved line 9, MIC evolved/MIC ancestor
# [24] = polymyxin B-resistant evolved line 2 of AB-SEN, MIC relative to ancestor
# [25] = polymyxin B-resistant evolved line 6 of AB-SEN, MIC relative to ancestor
# [26] = polymyxin B-resistant evolved line 9 of AB-SEN, MIC relative to ancestor
# [27] = PA-SEN, polymyxin B-resistant evolved line 1, MIC evolved/MIC ancestor
# [28] = PA-SEN, polymyxin B-resistant evolved line 5, MIC evolved/MIC ancestor
# [29] = PA-SEN, polymyxin B-resistant evolved line 7, MIC evolved/MIC ancestor
# [30] = polymyxin B-resistant evolved line 1 of PA-SEN, MIC relative to ancestor
# [31] = polymyxin B-resistant evolved line 5 of PA-SEN, MIC relative to ancestor
# [32] = polymyxin B-resistant evolved line 7 of PA-SEN, MIC relative to ancestor
Compound,"Relative MIC [1, 9]","Relative MIC [1, 10]","Relative MIC [1, 11]","Relative MIC [1, 12]","Relative MIC [1, 13]","Relative MIC [1, 14]","Relative MIC [2, 15]","Relative MIC [2, 16]","Relative MIC [2, 17]","Relative MIC [2, 18]","Relative MIC [2, 19]","Relative MIC [2, 20]","Relative MIC [3, 21]","Relative MIC [3, 22]","Relative MIC [3, 23]","Relative MIC [3, 24]","Relative MIC [3, 25]","Relative MIC [3, 26]","Relative MIC [4, 27]","Relative MIC [4, 28]",further results
CC[C@H](C)CCCCC(=O)N[C@@H](CCN)C(=O)N[C@H](C(=O)N[C@@H](CCN)C(=O)N[C@H]1CCNC(=O)[C@H]([C@@H](C)O)NC(=O)[C@H](CCN)NC(=O)[C@H](CCN)NC(=O)[C@H](CC(C)C)NC(=O)[C@@H](Cc2ccccc2)NC(=O)[C@H](CCN)NC1=O)[C@@H](C)O [Polymyxin B] (X2-[Dab]T[Dab][Dab][Dab][dF]L[Dab][Dab]T; lactam 4-C (inferred); N-terminus assumed),64,32,32,64,32,32,32,64,64,32,64,64,64,1024,64,64,1024,64,32,32,"Relative MIC [4, 29]: 8; Relative MIC [4, 30]: 32; Relative MIC [4, 31]: 32; Relative MIC [4, 32]: 8; resistance level (relative MIC) after FoR assay ([5]; multidrug-resistant E. coli strain): no resistant mutants emerged; resistance level (relative MIC) after FoR assay [6]: no resistant mutants emerged; increase in resistance level after adaptive laboratory evolution [7]: 32 fold"
CC(C)c1ccc(Cn2ccc3c4c(N)nc(NC5CC5)nc4ccc32)cc1 [SCH79797],1,1,1,1,1,1,1,1,1,1,1,1,1,0.5,1,1,0.5,1,–,–,overlap in the set of mutated genes associated with ST permeabilizers [8]: 0.6%
CC(C)C[C@@H]1NC(=O)[C@@H](Cc2ccccc2)NC(=O)[C@H](CCN)NC(=O)[C@@H](NC(=O)[C@H](CN)NC(=O)[C@@H](NC(=O)C[C@H](CN)c2cccc(Cl)c2)[C@@H](C)O)CCNC(=O)[C@H]([C@@H](C)O)NC(=O)[C@H](CCN)NC(=O)[C@H](CCN)NC1=O [SPR206] (X1-T[Dap][Dab][Dab][dF]L[Dab][Dab]T; lactam 3-C (inferred); N-terminus assumed),32,64,64,32,64,64,32,128,128,32,128,128,128,2048,128,128,2048,128,64,64,"Relative MIC [4, 29]: 32; Relative MIC [4, 30]: 64; Relative MIC [4, 31]: 64; Relative MIC [4, 32]: 32; resistance level (relative MIC) after FoR assay ([5]; E. coli sensitive strain): more than 128 fold; resistance level (relative MIC) after FoR assay [6]: more than 128 fold; increase in resistance level after adaptive laboratory evolution [7]: 32 fold"
POL7306,1,2,2,1,2,2,1,32,32,1,32,32,32,32,8,32,32,8,1,1,"overlap in the set of mutated genes associated with ST permeabilizers [8]: 8.12%; Relative MIC [4, 29]: 4; Relative MIC [4, 30]: 1; Relative MIC [4, 31]: 1; Relative MIC [4, 32]: 4"
Tridecaptin M152-P3,–,–,–,–,–,–,–,–,–,–,–,–,–,–,–,–,–,–,–,–,overlap in the set of mutated genes associated with ST permeabilizers [8]: 2.5%
colistin,–,32,32,–,32,32,32,64,32,32,64,32,32,512,32,32,512,32,32,32,"Relative MIC [4, 29]: 16; Relative MIC [4, 30]: 32; Relative MIC [4, 31]: 32; Relative MIC [4, 32]: 16"
